Laboratory results reported in patent US9695155B2, “Herbicidal substituted pyrimidinyloxy benzene compounds” (E. I. DU PONT DE NEMOURS AND COMPANY, priority 2013, dated 2017).

Key:
bluegrass = assay: Test D preemergence; format: in vivo, Poa annua; conditions: Poa annua, pre-emergence, scale 0-100, read-out: Plant response rating, Bluegrass
Method in brief: (§1)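 Species were sown in silt loam for preemergence treatment, or grown in peat-based medium to the 1–4-leaf stage (2–18 cm) for postemergence sprays. Test chemicals were formulated in a non-phytotoxic solvent mixture with surfactant. After 7–21 days in a controlled environment, plants were rated visually against controls on a 0 (no effect) to 100 (complete control) scale.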

blackgrass = assay: Test D preemergence; format: in vivo, Alopecurus myosuroides; conditions: Alopecurus myosuroides, pre-emergence, scale 0-100, read-out: Plant response rating, Blackgrass
Method in brief: as §1

field violet = assay: Test D preemergence; format: in vivo, Viola arvensis; conditions: Viola arvensis, pre-emergence, scale 0-100, read-out: Plant response rating, Field Violet
Method in brief: as §1

Italian ryegrass [1] = assay: Test D preemergence; format: in vivo, Lolium multiflorum; conditions: Lolium multiflorum, pre-emergence
Method in brief: as §1

kochia = assay: Test D preemergence; format: in vivo, Kochia scoparia; conditions: Bassia scoparia, pre-emergence, scale 0-100, read-out: Plant response rating, Kochia
Method in brief: as §1

canarygrass = assay: Test D postemergence; format: in vivo, Phalaris minor; conditions: Phalaris minor, post-emergence, scale 0 to 100 (0 no effect, 100 complete control), read-out: Plant response rating, Canarygrass
Method in brief: as §1

galium = assay: Test D postemergence; format: in vivo, Galium aparine; conditions: Galium, post-emergence, scale 0 to 100 (0 no effect, 100 complete control), read-out: Plant response rating, Galium
Method in brief: as §1

deadnettle = assay: Test D postemergence; format: in vivo, Lamium amplexicaule; conditions: Lamium amplexicaule, post-emergence, scale 0 to 100 (0 no effect, 100 complete control), read-out: Plant response rating, Deadnettle
Method in brief: as §1

Italian ryegrass [2] = assay: Test D postemergence; format: in vivo, Lolium multiflorum; conditions: Lolium multiflorum, post-emergence, scale 0 to 100 (0 no effect, 100 complete control), read-out: Plant response rating, Ryegrass, Italian
Method in brief: as §1

oilseed rape = assay: Test D postemergence; format: in vivo, Brassica napus; conditions: Brassica napus, post-emergence, scale 0 to 100 (0 no effect, 100 complete control), read-out: Plant response rating, Oilseed Rape
Method in brief: as §1

chamomile = assay: Test D postemergence; format: in vivo, Matricaria inodora; conditions: Tripleurospermum inodorum, post-emergence, scale 0 to 100 (0 no effect, 100 complete control), read-out: Plant response rating, Chamomile
Method in brief: as §1

wild buckwheat = assay: Test D postemergence; format: in vivo, Polygonum convolvulus; conditions: Fallopia convolvulus, post-emergence, Postemergence, scale 0 to 100 (0 no effect, 100 complete control), read-out: Plant response rating, Buckwheat, Wild
Method in brief: as §1

Italian ryegrass [3] = assay: Test E postemergence; format: in vivo, Lolium multiflorum; conditions: Lolium multiflorum, post-emergence, read-out: Plant response rating, Ryegrass, Italian
Method in brief: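 Response was scored visually on a 0-100 scale (100 = complete control) versus controls after 14 to 21 days in the greenhouse. Test chemicals, formulated with surfactant in a non-phytotoxic solvent mixture, had been applied preemergence to seeds in silt loam soil or postemergence to 1- to 4-leaf plants in potting medium.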

## N#Cc1cccc(Oc2ncc(Cl)cn2)c1-n1cc(C(F)(F)F)cn1 [Compound 58, 3-[(5-chloro-2-pyrimidinyl)oxy]-2-[4-(trifluoromethyl)-1H-pyrazol-1-yl]benzonitrile]
bluegrass; 31 g ai/ha
  pest or weed control at 31 g/ha: 10%
bluegrass; 62 g ai/ha
  pest or weed control at 62 g/ha: 50%
bluegrass; 125 g ai/ha
  pest or weed control at 125 g/ha: 100%
bluegrass; 250 g ai/ha
  pest or weed control at 250 g/ha: 100%
blackgrass; 31 g ai/ha
  pest or weed control at 31 g/ha: 20%
blackgrass; 62 g ai/ha
  pest or weed control at 62 g/ha: 55%
blackgrass; 125 g ai/ha
  pest or weed control at 125 g/ha: 100%
blackgrass; 250 g ai/ha
  pest or weed control at 250 g/ha: 100%
Field violet; 31 g ai/ha
  pest or weed control at 31 g/ha: 100%
Field violet; 62 g ai/ha
  pest or weed control at 62 g/ha: 100%
Field violet; 125 g ai/ha
  pest or weed control at 125 g/ha: 100%
Field violet; 250 g ai/ha
  pest or weed control at 250 g/ha: 100%
Italian ryegrass [1]; 31 g ai/ha, scale 0 (no effect) to 100 (complete control), read-out: Plant response rating, Ryegrass, Italian
  pest or weed control at 31 g/ha: 10%
Italian ryegrass [1]; 62 g ai/ha, scale 0-100, read-out: Plant response rating, Ryegrass, Italian
  pest or weed control at 62 g/ha: 35%
Italian ryegrass [1]; 125 g ai/ha, scale 0-100, read-out: Plant response rating, Ryegrass, Italian
  pest or weed control at 125 g/ha: 100%
Italian ryegrass [1]; 250 g ai/ha, scale 0-100, read-out: Plant response rating, Ryegrass, Italian
  pest or weed control at 250 g/ha: 100%
kochia; 31 g ai/ha
  pest or weed control at 31 g/ha: 95%
kochia; 62 g ai/ha
  pest or weed control at 62 g/ha: 95%
kochia; 125 g ai/ha
  pest or weed control at 125 g/ha: 95%
kochia; 250 g ai/ha
  pest or weed control at 250 g/ha: 95%
canarygrass; 31 g ai/ha
  pest or weed control at 31 g/ha: 35%
canarygrass; 62 g ai/ha
  pest or weed control at 62 g/ha: 40%
canarygrass; 125 g ai/ha
  pest or weed control at 125 g/ha: 50%
canarygrass; 250 g ai/ha
  pest or weed control at 250 g/ha: 70%
galium; 31 g ai/ha
  pest or weed control at 31 g/ha: 70%
galium; 62 g ai/ha
  pest or weed control at 62 g/ha: 100%
galium; 125 g ai/ha
  pest or weed control at 125 g/ha: 100%
galium; 250 g ai/ha
  pest or weed control at 250 g/ha: 100%
deadnettle; 31 g ai/ha
  pest or weed control at 31 g/ha: 80%
deadnettle; 62 g ai/ha
  pest or weed control at 62 g/ha: 100%
deadnettle; 125 g ai/ha
  pest or weed control at 125 g/ha: 100%
deadnettle; 250 g ai/ha
  pest or weed control at 250 g/ha: 100%
Italian ryegrass [2]; 31 g ai/ha
  pest or weed control at 31 g/ha: 10%
Italian ryegrass [2]; 62 g ai/ha
  pest or weed control at 62 g/ha: 20%
Italian ryegrass [2]; 125 g ai/ha
  pest or weed control at 125 g/ha: 50%
Italian ryegrass [2]; 250 g ai/ha
  pest or weed control at 250 g/ha: 65%
Oilseed rape; 31 g ai/ha
  plant injury at 31 g/ha: 55%
Oilseed rape; 62 g ai/ha
  plant injury at 62 g/ha: 85%
Oilseed rape; 125 g ai/ha
  plant injury at 125 g/ha: 95%
Oilseed rape; 250 g ai/ha
  plant injury at 250 g/ha: 95%
chamomile; 31 g ai/ha
  pest or weed control at 31 g/ha: 10%
chamomile; 62 g ai/ha
  pest or weed control at 62 g/ha: 25%
chamomile; 125 g ai/ha
  pest or weed control at 125 g/ha: 35%
chamomile; 250 g ai/ha
  pest or weed control at 250 g/ha: 35%
Wild buckwheat; 31 g ai/ha
  pest or weed control at 31 g/ha: 90%
Wild buckwheat; 62 g ai/ha
  pest or weed control at 62 g/ha: 100%
Wild buckwheat; 125 g ai/ha
  pest or weed control at 125 g/ha: 100%
Wild buckwheat; 250 g ai/ha
  pest or weed control at 250 g/ha: 100%
Italian ryegrass [3]; Postemergence, 31 g ai/ha, scale 0 to 100
  pest or weed control at 31 g/ha: 10%
Italian ryegrass [3]; Postemergence, 62 g ai/ha, scale 0 to 100
  pest or weed control at 62 g/ha: 20%
Italian ryegrass [3]; Postemergence, 125 g ai/ha, scale 0 to 100
  pest or weed control at 125 g/ha: 35%
Italian ryegrass [3]; Postemergence, 250 g ai/ha, scale 0 to 100
  pest or weed control at 250 g/ha: 60%
Italian ryegrass [3]; postemergence, 16 g ai/ha, scale 0 to 100, 0 no effect, 100 complete control
  pest or weed control at 16 g/ha: 10%
